Where two headings read alike, the source gives them in different places.
Legend:
Full length SHP2 enzyme = Full length SHP2 enzyme (Homo sapiens (Human), UniProt Q06124); test: SHP2 Phosphatase Assays; format: biochemical; details: full length SHP2 0.1 nM, 1 uM IRS-1 peptide, DiFMUP substrate, room temperature
Protocol: IC50 values were determined at room temperature in 384-well black polystyrene plate, using a final reaction volume of 15 μl and the following assay buffer conditions: 60 mM Hepes (pH=7.2), 75 mM NaCl, 75 mM KCl, and 1 mM EDTA, 0.05% P-20, 5 mM dithiothreitol (DTT). Full length SHP2 enzyme (diluted to 0.1 nM in reaction buffer) were co-incubated with 1 uM IRS-1 peptide and 0.01 nM to 10 μM compounds of the disclosure for 60 min. The surrogate substrate DiFMUP (5 μL, […]) was added, and incubated at rt for 60 min. The reaction was then quenched by the addition of 5 μL of a 40 μM solution of bpV(Phen). The fluorescence signal was monitored using a microplate reader (Envision, Perkin-Elmer) using excitation and emission wavelengths of 360 nm and 450 nm, respectively. The inhibitor dose-response curves were analyzed using normalized IC50 regression curve fitting with control-based normalization.

p-ERK/total ERK = p-ERK/total ERK Cellular Assay; format: cell-based
Protocol: p-ERK/total ERK Cellular Assay
Cells were seeded in 384-well cell culture plate and incubated overnight. Test compounds were added to the cell plate and the plate was incubated for 2-6 hours. To detect p-ERK, the cell plate was used AlphaLISA SureFire Ultra p-ERK kit; to detect total ERK, the cell plate was used total ERK HTRF kit. The plate was read on the Envision.

cells = test: Cell Proliferation Assay (CellTiter Glo); format: cell-based
Protocol: Firstly, the cells were seeded in 384-well cell culture plate and incubate overnight. The test compounds were added to the cell plate and incubated for 3-5 days. The cell plate was then detected using CellTiter Glo reagents.

[1] = p-ERK (AlphaLISA SureFire Ultra) / total ERK (HTRF), 2-6 hours incubation, read-out: IC50
[2] = 3-5 days incubation, CellTiter Glo, read-out: IC50

| Structure (SMILES) | IC50 (Full length SHP2 enzyme) [nM] | IC50 (p-ERK/total ERK; [1]) [nM] | IC50 (p-ERK/total ERK) [nM] | IC50 (cells) [nM] | IC50 (cells; [2]) [nM] |
| --- | --- | --- | --- | --- | --- |
| CC1(CN)CCN(c2ncc(Sc3cccc(Cl)c3Cl)[nH]c2=O)CC1 [Compound 2, 3-(4-(aminomethyl)-4-methylpiperidin-1-yl)-6-((2,3-dichlorophenyl)thio)pyrazin-2(1H)-one] | ≤ 50 | – | < 500 | < 5000 | – |
| NC1COCC12CCN(c1ncc(Sc3cccc(Cl)c3Cl)[nH]c1=O)CC2 (centres unmarked) [Compound 10, 3-(4-amino-2-oxa-8-azaspiro[4.5]decan-8-yl)-6-((2,3-dichlorophenyl)thio)pyrazin-2(1H)-one] | – | – | < 100 | < 5000 | – |
| NC1C2CC2CC12CCN(c1ncc(Sc3cccc(Cl)c3Cl)[nH]c1=O)CC2 (centres unmarked) [Compound 13, 3-(2-aminospiro[bicyclo[3.1.0]hexane-3,4′-piperidin]-1′-yl)-6-((2,3-dichlorophenyl)thio)pyrazin-2(1H)-one] | ≤ 50 | – | – | – | – |
| CC1(CN)CCN(c2ncc(Sc3cccc(NC(=O)c4c(O)nc5ccccn5c4=O)c3Cl)[nH]c2=O)CC1 [Compound 29, N-(3-((5-(4-(aminomethyl)-4-methylpiperidin-1-yl)-6-oxo-1,6-dihydropyrazin-2-yl)thio)-2-chlorophenyl)-2-hydroxy-4-oxo-4H-pyrido[1,2-a]pyrimidine-3-carboxamide] | ≤ 50 | < 100 | – | – | < 5000 |
| CC1(CN)CCN(c2ncc(Sc3cccc(NC(=O)c4c(O)nc5cnccn5c4=O)c3Cl)[nH]c2=O)CC1 [Compound 30, N-(3-((5-(4-(aminomethyl)-4-methylpiperidin-1-yl)-6-oxo-1,6-dihydropyrazin-2-yl)thio)-2-chlorophenyl)-2-hydroxy-4-oxo-4H-pyrazino[1,2-a]pyrimidine-3-carboxamide] | – | < 100 | – | – | – |
| CC1(CN)CCN(c2ncc(Sc3cccc(NC(=O)c4c(O)nc5sccn5c4=O)c3Cl)[nH]c2=O)CC1 [Compound 31, N-(3-((5-(4-(aminomethyl)-4-methylpiperidin-1-yl)-6-oxo-1,6-dihydropyrazin-2-yl)thio)-2-chlorophenyl)-7-hydroxy-5-oxo-5H-thiazolo[3,2-a]pyrimidine-6-carboxamide] | ≤ 50 | < 100 | – | – | < 5000 |
| CC1(CN)CCN(c2ncc(Sc3cccc(NC(=O)c4c(O)nc5[nH]ccn5c4=O)c3Cl)[nH]c2=O)CC1 [Compound 32, N-(3-((5-(4-(aminomethyl)-4-methylpiperidin-1-yl)-6-oxo-1,6-dihydropyrazin-2-yl)thio)-2-chlorophenyl)-7-hydroxy-5-oxo-1,5-dihydroimidazo[1,2-a]pyrimidine-6-carboxamide] | ≤ 50 | – | – | – | – |
| CC1(CN)CCN(c2ncc(Sc3cccc(NC(=O)c4c(O)nc5n(c4=O)CCCC5)c3Cl)[nH]c2=O)CC1 [Compound 33, N-(3-((5-(4-(aminomethyl)-4-methylpiperidin-1-yl)-6-oxo-1,6-dihydropyrazin-2-yl)thio)-2-chlorophenyl)-2-hydroxy-4-oxo-6,7,8,9-tetrahydro-4H-pyrido[1,2-a]pyrimidine-3-carboxamide] | ≤ 50 | < 100 | – | – | – |
| CC1(CN)CCN(c2nc3[nH]nc(Nc4cccc(Cl)c4Cl)c3c(=O)[nH]2)CC1 [Compound 34, 6-(4-(aminomethyl)-4-methylpiperidin-1-yl)-3-((2,3-dichlorophenyl)amino)-1,5-dihydro-4H-pyrazolo[3,4-d]pyrimidin-4-one] | ≤ 50 | < 500 | – | – | – |
| CC1(CN)CCN(c2nc3[nH]nc(Oc4cccc(Cl)c4Cl)c3c(=O)[nH]2)CC1 [Compound 35, 6-(4-(aminomethyl)-4-methylpiperidin-1-yl)-3-(2,3-dichlorophenoxy)-1,5-dihydro-4H-pyrazolo[3,4-d]pyrimidin-4-one] | ≤ 50 | < 500 | – | – | – |
| Cn1c(N2CCC(C)(CN)C2)nc(N)c(Sc2cccc(Cl)c2Cl)c1=O (centres unmarked) [Compound 52, 6-amino-2-(3-(aminomethyl)-3-methylpyrrolidin-1-yl)-5-((2,3-dichlorophenyl)thio)-3-methylpyrimidin-4(3H)-one] | ≤ 50 | – | – | – | – |
| N[C@@H]1COCC12CCN(c1ncc(Sc3cccc(Cl)c3Cl)[nH]c1=O)CC2 [Compound 73, (S)-3-(4-amino-2-oxa-8-azaspiro[4.5]decan-8-yl)-6-((2,3-dichlorophenyl)thio)pyrazin-2(1H)-one] | ≤ 50 | < 100 | – | – | < 5000 |
| NC1CCCC(n2ccc(-c3cccc(Cl)c3Cl)cc2=O)C1 (centres unmarked) [Compound 74, 1-(3-aminocyclohexyl)-4-(2,3-dichlorophenyl)pyridin-2(1H)-one] | ≤ 50 | – | – | – | – |
| COc1cccc(Sc2cnc(N3CCC4(CC3)CO[C@@H](C)[C@H]4N)c(=O)[nH]2)c1Cl [Compound 79, 3-((3S,4S)-4-amino-3-methyl-2-oxa-8-azaspiro[4.5]decan-8-yl)-6-((2-chloro-3-methoxyphenyl)thio)pyrazin-2(1H)-one] | ≤ 50 | < 100 | – | – | – |
| C[C@@H]1OCC2(CCN(c3ncc(Sc4cccc(F)c4F)[nH]c3=O)CC2)[C@@H]1N [Compound 82, 3-((3S,4S)-4-amino-3-methyl-2-oxa-8-azaspiro[4.5]decan-8-yl)-6-((2,3-difluorophenyl)thio)pyrazin-2(1H)-one] | ≤ 50 | < 100 | – | – | < 5000 |
| NC1C2CN(c3ncc(Sc4cccc(Cl)c4Cl)[nH]c3=O)CC12 (centres unmarked) [Compound 86, 3-(6-amino-3-azabicyclo[3.1.0]hexan-3-yl)-6-((2,3-dichlorophenyl)thio)pyrazin-2(1H)-one] | ≤ 50 | – | – | – | – |
| N[C@@H]1c2ccccc2OC12CCN(c1ncc(Sc3cccc(Cl)c3Cl)[nH]c1=O)CC2 [Compound 87, (R)-3-(3-amino-3H-spiro[benzofuran-2,4′-piperidin]-1′-yl)-6-((2,3-dichlorophenyl)thio)pyrazin-2(1H)-one] | ≤ 50 | – | – | – | – |
| N[C@@H]1COCC12CCN(c1ncc(Sc3ccnc(Cl)c3Cl)[nH]c1=O)CC2 [Compound 88, (S)-3-(4-amino-2-oxa-8-azaspiro[4.5]decan-8-yl)-6-((2,3-dichloropyridin-4-yl)thio)pyrazin-2(1H)-one] | ≤ 50 | – | – | – | – |
| N[C@@H]1c2ccccc2CC12CCN(c1ncc(Sc3cccc(Cl)c3Cl)[nH]c1=O)CC2 [Compound 108, (S)-3-(1-amino-1,3-dihydrospiro[indene-2,4′-piperidin]-1′-yl)-6-((2,3-dichlorophenyl)thio)pyrazin-2(1H)-one] | ≤ 50 | – | – | – | – |

Further lines, with some results ahead:

| IC50 (Full length SHP2 enzyme) [nM] | IC50 (p-ERK/total ERK; [1]) [nM] | Structure (SMILES) | IC50 (p-ERK/total ERK) [nM] | IC50 (cells) [nM] | IC50 (cells; [2]) [nM] |
| --- | --- | --- | --- | --- | --- |
| ≤ 50 | < 100 | C[C@@H]1OCC2(CCN(c3ncc(Sc4cccc(Cl)c4Cl)[nH]c3=O)CC2)[C@@H]1N [Compound 14] | – | – | < 1000 |
| ≤ 50 | – | C[C@@H]1OCC2(CCN(c3ncc(Sc4ccnc(N)c4Cl)[nH]c3=O)CC2)[C@@H]1N [Compound 77, 6-((2-amino-3-chloropyridin-4-yl)thio)-3-((3S,4S)-4-amino-3-methyl-2-oxa-8-azaspiro[4.5]decan-8-yl)pyrazin-2(1H)-one] | – | – | – |
| ≤ 50 | < 100 | COc1nccc(Sc2cnc(N3CCC4(CC3)CO[C@@H](C)[C@H]4N)c(=O)[nH]2)c1Cl [Compound 80, 3-((3S,4S)-4-amino-3-methyl-2-oxa-8-azaspiro[4.5]decan-8-yl)-6-((3-chloro-2-methoxypyridin-4-yl)thio)pyrazin-2(1H)-one] | – | – | – |
| ≤ 50 | < 100 | C[C@@H]1OCC2(CCN(c3ncc(Sc4ccnc(Cl)c4Cl)[nH]c3=O)CC2)[C@@H]1N [Compound 81, 3-((3S,4S)-4-amino-3-methyl-2-oxa-8-azaspiro[4.5]decan-8-yl)-6-((2,3-dichloropyridin-4-yl)thio)pyrazin-2(1H)-one] | – | – | < 1000 |
| ≤ 50 | < 100 | C[C@@H]1OCC2(CCN(c3ncc(Sc4ccnc(F)c4Cl)[nH]c3=O)CC2)[C@@H]1N [Compound 83, 3-((3S,4S)-4-amino-3-methyl-2-oxa-8-azaspiro[4.5]decan-8-yl)-6-((3-chloro-2-fluoropyridin-4-yl)thio)pyrazin-2(1H)-one] | – | – | < 1000 |
| ≤ 50 | < 100 | C[C@@H]1OCC2(CCN(c3ncc(Sc4ccnc(F)c4F)[nH]c3=O)CC2)[C@@H]1N [Compound 84] | – | – | < 1000 |
| ≤ 50 | – | C[C@@H]1OCC2(CCN(c3ncc(Sc4cc[nH]c(=O)c4Cl)[nH]c3=O)CC2)[C@@H]1N [Compound 107, 3-((3S,4S)-4-amino-3-methyl-2-oxa-8-azaspiro[4.5]decan-8-yl)-6-((3-chloro-2-oxo-1,2-dihydropyridin-4-yl)thio)pyrazin-2(1H)-one] | – | – | – |
| ≤ 50 | < 100 | C[C@@H]1OCC2(CCN(c3ncc(Sc4cccc(F)c4Cl)[nH]c3=O)CC2)[C@@H]1N [Compound 109, 3-((3S,4S)-4-amino-3-methyl-2-oxa-8-azaspiro[4.5]decan-8-yl)-6-((2-chloro-3-fluorophenyl)thio)pyrazin-2(1H)-one] | – | – | < 5000 |
